The target of test [1] is Glycogen synthase kinase-3 alpha (Homo sapiens, UniProt P49840). As to the kind of experiment: TR-FRET Assay. In a few lines:
(§1)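 Kinase activity, measured after a 30-minute compound preincubation, was stopped with EDTA and quantified by TR-FRET using a Tb-labelled pSer641 antibody paired with streptavidin-d2.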
(In general: In TR-FRET formats the signal depends on donor and acceptor labels being close together.)

For test [2], the target named is Glycogen synthase kinase-3 beta (Homo sapiens, UniProt P49841). Kind of test: TR-FRET Assay. In a few lines: as §1

Molecules are shown by their SMILES. “And” between values parts separate entries of the source, which are not always exact repeats. Equal values may be shown once.

The IC50 is the concentration that gives 50% inhibition. High values mean weaker potency, low ones greater potency.

Chain of Glycogen synthase kinase-3 beta (P49841 whole entry): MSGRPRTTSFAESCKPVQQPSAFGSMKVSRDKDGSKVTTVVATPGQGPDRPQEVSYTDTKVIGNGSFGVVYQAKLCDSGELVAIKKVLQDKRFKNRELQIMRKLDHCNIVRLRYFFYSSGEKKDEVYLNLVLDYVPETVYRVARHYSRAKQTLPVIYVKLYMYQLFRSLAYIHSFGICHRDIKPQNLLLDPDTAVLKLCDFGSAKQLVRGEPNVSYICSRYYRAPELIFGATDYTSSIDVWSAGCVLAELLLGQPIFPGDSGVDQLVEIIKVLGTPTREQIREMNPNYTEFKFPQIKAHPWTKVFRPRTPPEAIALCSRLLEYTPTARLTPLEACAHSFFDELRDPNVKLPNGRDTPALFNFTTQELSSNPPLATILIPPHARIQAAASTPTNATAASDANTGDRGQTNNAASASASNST
Chain of Glycogen synthase kinase-3 alpha (P49840 whole entry): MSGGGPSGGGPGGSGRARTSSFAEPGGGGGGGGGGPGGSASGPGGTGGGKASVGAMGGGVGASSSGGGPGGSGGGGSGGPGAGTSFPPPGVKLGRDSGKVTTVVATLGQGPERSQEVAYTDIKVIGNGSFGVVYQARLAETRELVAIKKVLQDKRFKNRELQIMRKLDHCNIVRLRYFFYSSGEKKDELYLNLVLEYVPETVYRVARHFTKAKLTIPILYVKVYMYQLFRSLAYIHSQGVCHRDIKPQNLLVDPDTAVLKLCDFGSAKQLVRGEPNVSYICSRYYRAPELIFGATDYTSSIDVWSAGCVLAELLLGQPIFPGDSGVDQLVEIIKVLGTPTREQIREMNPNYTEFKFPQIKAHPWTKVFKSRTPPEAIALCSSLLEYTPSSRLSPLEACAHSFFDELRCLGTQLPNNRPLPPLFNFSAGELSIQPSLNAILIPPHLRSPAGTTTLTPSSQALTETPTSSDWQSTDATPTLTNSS

On to `CC[C@]1(c2cccc(-c3cnn(C)c3)c2)C2=C(N=NC2)NC2=C1C(=O)C(C)(C)C2` [US20250313563, Compound 950819], for which the figures for the IC50 in test [1] and in test [2] were 0.1 to 1 µM and 1 to 5 µM, respectively.

Turning to `CCC1(c2cccc(C(F)(F)F)c2)C2=C(N=NC2)NC2=C1C(=O)N(C)C2(C)C` (centres undefined) [US20250313563, Compound 913198], the IC50 in test [1] was under 0.1 µM; in test [2] it was 0.1 to 1 µM.

Regarding `CC[C@]1(c2cccc(C(F)(F)F)c2)C2=CN=NC2NC2=C1C(=O)NC(C)(C)C2` (some centres undefined) [US20250313563, Compound 913004], the IC50 in test [1] and in test [2] was over 5 µM in each case.

On to `CC[C@]1(c2cccc(-c3cc(C)ncc3OC)c2)C2=CN=NC2NC2=C1C(=O)NC(C)(C)C2` (some centres undefined) [US20250313563, Compound 949522], for which the concentration for half-maximal inhibition (IC50) in test [1] is under 0.1 µM; in test [2], 0.1 to 1 µM.

Take `CCC1(c2cccc(-c3cc(C)nn3C)c2)C2=C(N=NC2)NC2=C1C(=O)NC(C)(C)C2` (centres undefined) [US20250313563, Compound 943371]: the IC50 in test [1] was under 0.1 µM; in test [2] it was 1 to 5 µM.

Turning to `CC[C@@]1(c2cccc(C(C)C)c2)C2=C(CC(C)(C)NC2=O)NC2N=NC(C)=C21` (some centres undefined) [US20250313563, Compound 949646], the 50% inhibitory concentration (IC50) in test [1] and in test [2] was over 5 µM each time.

Turning to `CCC1(c2cccc(-c3c(C)cncc3C)c2)C2=CN=NC2NC2=C1C(=O)CC(C)(C)C2` (centres undefined) [US20250313563, Compound 945703], the IC50 in test [1] and in test [2] was under 0.1 µM throughout.

With `CC1(C)CC(=O)C2=C(C1)NC1=C(CN=N1)C21CN(Cc2ccccn2)C1` [US20250313563, Compound 929438], the concentration for half-maximal inhibition (IC50) in test [1] and in test [2] was over 5 µM in each case.

In the case of `CCC1(c2cccc(C3=CN=NC3)c2)C2=C(CC(C)(C)NC2=O)NC2N=NC(C)=C21` (centres undefined) [US20250313563, Compound 945459], the IC50 in test [1] and in test [2] was under 0.1 µM in each case.

Consider `CC[C@]1(c2cccc(-c3cnn(CCN4CCCC4)c3)c2)C2=CN=NC2NC2=C1C(=O)NC(C)(C)C2` (some centres undefined) [US20250313563, Compound 949510], for which the IC50 in test [1] and in test [2] was over 5 µM in each case.

As for `CC[C@]1(c2cccc(Oc3ncccn3)c2)C2=CN=NC2NC2=C1C(=O)NC(C)(C)C2` (some centres undefined) [US20250313563, Compound 949335], the IC50 in test [1] and in test [2] was over 5 µM in each case.

For the compound `CC[C@]1(c2ccccc2)C2=CN=NC2NC2=C1C(=O)CC1(CCCC1)C2` (some centres undefined) [US20250313563, Compound 789562], the 50% inhibitory concentration (IC50) in test [1] is under 0.1 µM; in test [2] it was 0.1 to 1 µM.

For `CCC1(c2cccc(-c3ccncc3C)c2)C2=CN=NC2NC2=C1C(=O)CC(C)(C)C2` (centres undefined) [US20250313563, Compound 913351], the IC50 in test [1] and in test [2] was under 0.1 µM in each case.

`CC1(C)CC(=O)C2=C(C1)NC1=C(CN=N1)C21CN(S(=O)(=O)C2CC2)C1` [US20250313563, Compound 913259]: the IC50 in test [1] and in test [2] was under 0.1 µM each time.

For `Cn1ccc(-c2cccc([C@]3(C)C4=C(CC(C)(C)CC4=O)NC4=C3C(CC(C)(C)C)N=N4)c2)n1` (some centres undefined) [US20250313563, Compound 126366], the half-inhibitory concentration (IC50) in test [1] was 1 to 5 µM; in test [2], 0.1 to 1 µM.

As for `CC1(C)CC(=O)C2=C(C1)NC1=C(CN=N1)[C@]21CCO[C@H](C(C)(C)C)C1` [US20250313563, Compound 912112], the IC50 in test [1] and in test [2] was 0.1 to 1 µM throughout.

For the compound `CC[C@@]1(c2cccc(C(F)(F)F)c2)C2=C(N=NC2)NC2=C1C(=O)N(Cc1ccccc1)[C@H]2C` [US20250313563, Compound 930333], the half-maximal inhibitory concentration (IC50) in test [1] and in test [2] was over 5 µM in each case.

Consider `CCC1(c2cccc(C(F)(F)F)c2)C2=CN=NC2NC2=C1C(=O)N(c1cncnc1)CC2` (centres undefined) [US20250313563, Compound 948238], for which the IC50 is under 0.1 µM in test [1] and 0.1 to 1 µM in test [2].

For `CC[C@@]1(c2cccc(-c3ccncc3)c2)C2=C(CC(C)(C)CC2=O)NC2N=NC(C(F)(F)F)=C21` (some centres undefined) [US20250313563, Compound 917292], the IC50 in test [1] and in test [2] was 0.1 to 1 µM each time.

`CC[C@@]1(c2cccc(-c3cn(C)nc3C(C)C)c2)C2=C(CC(C)(C)CC2=O)NC2N=NC(C)=C21` (some centres undefined) [US20250313563, Compound 913029]: the IC50 in test [1] and in test [2] was under 0.1 µM each time.

As for `CC1(C)CC(=O)C2=C(C1)NC1N=NC=C1C21CCCN(S(=O)(=O)Cc2ccccc2)CC1` (centres undefined) [US20250313563, Compound 932632], the IC50 was under 0.1 µM in test [1] and 0.1 to 1 µM in test [2].

As to `CC[C@@]1(c2cccc(-c3ccnn3C)c2)C2=CN=NC2NC2=C1C(=O)N[C@@]1(CCCOC1)C2` (some centres undefined) [US20250313563, Compound 949115], the IC50 in test [1] is < 0.1 µM and 0.1 to 1 µM; in test [2], < 0.1 µM and 1 to 5 µM.

In the case of `CC[C@@]1(c2cccc(C(F)(F)F)c2)C2=CN=NC2NC2=C1C(=O)N(CCOC)CC2` (some centres undefined) [US20250313563, Compound 949600], the concentration for half-maximal inhibition (IC50) in test [1] and in test [2] was over 5 µM in each case.

Take `CC1(C)CC(=O)C2=C(C1)NC1=C(CN=N1)C21COC1` [US20250313563, Compound 889569]: the IC50 in test [1] and in test [2] was 0.1 to 1 µM throughout.

Turning to `CC[C@@]1(c2cccc(-c3cnn(C)c3C)c2)C2=CN=NC2NC2=C1C(=O)NC(C)(C)C2` (some centres undefined) [US20250313563, Compound 945608], the half-maximal inhibitory concentration (IC50) was under 0.1 µM in test [1] and 0.1 to 1 µM in test [2].

`C[C@H]1COCC[C@]12C1=CN=NC1NC1=C2C(=O)CC(C)(C)C1` (some centres undefined) [US20250313563, Compound 924309]: the results for the IC50 in test [1] and in test [2] were 1 to 5 µM and over 5 µM, respectively.

Consider `CCC1(c2ccccc2)C2=C(N=NC2)NC2=C1C(=O)CC(C)(C(F)(F)F)C2` (centres undefined) [US20250313563, Compound 816796], for which the values for the IC50 in test [1] and in test [2] were 0.1 to 1 µM and 1 to 5 µM, respectively.

As for `CC1(C)CC(=O)C2=C(C1)NC1=NN=C(Br)C1C21CCNc2ccccc21` (centres undefined) [US20250313563, Compound 810460], the IC50 was 1 to 5 µM in test [1] and over 5 µM in test [2].

As to `CC[C@]1(c2cccc(C(F)(F)F)c2)C2=CN=NC2NC2=C1C(=O)N(C)C[C@H]2C` (some centres undefined) [US20250313563, Compound 883980], the IC50 is < 0.1 µM and 0.1 to 1 µM in test [1]; < 0.1 µM and 1 to 5 µM in test [2].

`Cc1cnn(C)c1S(=O)(=O)N1CCC2(CC1)C1=C(N=NC1)NC1=C2C(=O)CC(C)(C)C1` [US20250313563, Compound 945658]: the 50% inhibitory concentration (IC50) in test [1] was 0.1 to 1 µM; in test [2] it was 1 to 5 µM.

Regarding `CC[C@@]1(c2cccc(S(=O)(=O)CC3CC3)c2)C2=C(CC(C)(C)NC2=O)NC2N=NC(C(F)(F)F)=C21` (some centres undefined) [US20250313563, Compound 949186], the IC50 in test [1] and in test [2] was 0.1 to 1 µM throughout.

As to `CCC1(c2ccccc2)C2=C(N=NC2)NC2=C1C(=O)CC1(CCC1)C2` (centres undefined) [US20250313563, Compound 811555], the IC50 in test [1] and in test [2] was 0.1 to 1 µM each time.

As for `CC[C@]1(c2cccc(NS(C)(=O)=O)c2)C2=CN=NC2NC2=C1C(=O)CC(C)(C)C2` (some centres undefined) [US20250313563, Compound 927341], the IC50 in test [1] and in test [2] was 1 to 5 µM in each case.

Consider `CC1(C)CC(=O)C2=C(C1)NC1=C(CN=N1)C2(C)c1cc(F)cc(F)c1` (centres undefined) [US20250313563, Compound 785735], for which the IC50 is 0.1 to 1 µM in test [1] and over 5 µM in test [2].

Take `CC[C@@H]1C[C@]2(CO1)C1=C(N=NC1)NC1=C2C(=O)CC(C)(C)C1` [US20250313563, Compound 913213]: the IC50 lay in the range of 0.1 to 1 µM in test [1] and 1 to 5 µM in test [2].

Turning to `COc1ccc(S(=O)(=O)N2CCC3(CC2)C2=C(N=NC2)NC2=C3C(=O)CC(C)(C)C2)cn1` [US20250313563, Compound 945666], the 50% inhibitory concentration (IC50) in test [1] and in test [2] was under 0.1 µM in each case.

For the compound `CC[C@@]1(c2cccc(-c3ccnnc3)c2)C2=CN=NC2NC2=C1C(=O)CC(C)(C)C2` (some centres undefined) [US20250313563, Compound 929454], the IC50 is < 0.1 µM and 0.1 to 1 µM in test [1]; < 0.1 µM and 1 to 5 µM in test [2].

In the case of `CC1(C)CC(=O)C2=C(NC3N=NC=C3C23CCOCC3)[C@H]1F` (some centres undefined) [US20250313563, Compound 883833], the IC50 fell in the range of 0.1 to 1 µM in test [1] and 1 to 5 µM in test [2].

For `CC[C@@]1(c2cccc(-c3ccnc4c(F)cccc34)c2)C2=CN=NC2NC2=C1C(=O)NC(C)(C)C2` (some centres undefined) [US20250313563, Compound 948828], the IC50 is < 0.1 µM and 0.1 to 1 µM in test [1]; 0.1 to 1 µM and 1 to 5 µM in test [2].

`CC[C@]1(c2cccc(-c3ccnc(C)c3)c2)C2=CN=NC2NC2=C1C(=O)NC1(CCCC1)C2` (some centres undefined) [US20250313563, Compound 948660]: the IC50 in test [1] and in test [2] was under 0.1 µM throughout.

Consider `CC1(C)CC(=O)C2=C(C1)NC1=C(CN=N1)[C@@]21CCCN(S(=O)(=O)C2CC2)CC1` [US20250313563, Compound 932639], for which the figures for the IC50 in test [1] and in test [2] were under 0.1 µM and 0.1 to 1 µM, respectively.

`CC[C@]1(c2cccc(-c3ccnn3C)c2)C2=CN=NC2NC2=C1C(=O)NC1(CCS(=O)(=O)CC1)C2` (some centres undefined) [US20250313563, Compound 949400]: the figures for the 50% inhibitory concentration (IC50) in test [1] and in test [2] were 1 to 5 µM and over 5 µM, respectively.

For `CCC1(c2cccc(-c3ccncc3F)c2)C2=C(CC(C)(C)NC2=O)NC2N=NC(F)=C21` (centres undefined) [US20250313563, Compound 948999], the IC50 was under 0.1 µM in test [1] and 0.1 to 1 µM in test [2].

Take `CCC1(c2cccc(-c3cc(C)nnc3C)c2)C2=C(CC(C)(C)NC2=O)NC2N=NC(C(F)(F)F)=C21` (centres undefined) [US20250313563, Compound 949174]: the IC50 was < 0.1 µM and 0.1 to 1 µM in test [1]; < 0.1 µM and 0.1 to 1 µM in test [2].

Regarding `CC1(C)CC(=O)C2=C(C1)NC1=C(CN=N1)C21COC2(CN(C(=O)C3(F)CCC3)C2)C1` (centres undefined) [US20250313563, Compound 947279], the IC50 in test [1] and in test [2] was under 0.1 µM throughout.

On to `CC[C@]1(c2cccc(OCC(F)F)c2)C2=CN=NC2NC2=C1C(=O)CC(C)(C)C2` (some centres undefined) [US20250313563, Compound 949104], for which the IC50 in test [1] and in test [2] was under 0.1 µM in each case.

With `CC(C)CC(=O)N1CC2(C1)CC1(CO2)C2=C(N=NC2)NC2=C1C(=O)CC(C)(C)C2` (centres undefined) [US20250313563, Compound 947302], the half-inhibitory concentration (IC50) in test [1] and in test [2] was under 0.1 µM throughout.

These data come from BindingDB's records for patent US20250313563 (The Broad Institute, 2025).
